Reference: patent publication US20070082953A1, “Use of l-dopa, derivatives thereof and medicaments comprising said compounds for the prophylaxis of psychotic diseases” (priority 2003, published 2007)

System: patients with acute schizophrenia
Experiment: Relapse prophylaxis in schizophrenia patients withdrawn from fluphenazine maintenance therapy
Type: in vivo
Conditions: ten clinically stable patients taken off fluphenazine; L-dopa or L-dopa combination preparation given 2 months prior to withdrawal and during the entire withdrawal phase; about 8 of 10 relapses expected within 12 months per literature
Protocol: Ten patients with acute schizophrenia, who had accordingly received maintenance therapy with fluphenazine for more than one year and were clinically stable, were successively taken off this drug. According to clinical experience (see Gitlin M., Nuechterlein K., Subotnik K. L. et al., Am. J. Psychiatry (2001) 158(11), pp. 1835-42), about 8 of the 10 patients would be expected to suffer a relapse within the following 12 months. Our patients were treated with L-dopa or a combination preparation containing L-dopa for 2 months prior to withdrawal and during the entire withdrawal phase. In these patients, a relapse occurred in only 2 of 10 cases.

With N[C@@H](Cc1ccc(O)c(O)c1)C(=O)O [L-dopa, 3,4-dihydroxy-L-phenylalanine] as the molecule, how does the “relapse occurred (cases with relapse out of patients treated)” value read?
The value was 2 of 10.
